According to publication PMC8728392, “Synthesis, Anticancer Assessment, and Molecular Docking of Novel Chalcone-Thienopyrimidine Derivatives in HepG2 and MCF-7 Cell Lines” (Oxidative Medicine and Cellular Longevity, 2021):

Legend:
[1] = system: human breast cancer cell line (MCF-7); experiment: MTT assay, cytotoxicity; assay type: cell-based; settings: for survival percentage (mean ± SEM): MCF-7, 24 hours
Experimental: (§1) Cancer cell lines were manipulated according to the method described by Sigounas et al.. In this method, the cell lines were grown as adherent monolayers in T75 flasks with Dulbecco's modified Eagle's medium (DMEM) supplemented with 10% Fetal Bovine Serum (FBS), 2 mM L-glutamine, and 1% streptomycin/penicillin. The cells were left to grow in a CO2 incubator at 37°C, 5% CO2, and 95% humidity until their confluence.
(§2) The 3-[4,5-dimethylthiazol-2-yl]-2,5-diphenyltetrazolium bromide (MTT) colorimetric assay was used to examine the sensitivity of cells to tested compounds (as anticancer drugs), as previously described. This assay depends on the production of a purple formazan derivative from the yellow tetrazolium bromide (MTT) by mitochondrial succinate dehydrogenase in viable cells. The percentage of cell survival was calculated as follows: (1) Percentage of survival=O.D.treated cells/O.D.control cells×100.
(§3) For preliminary screening of the cytotoxicity of synthesized compounds 3a-g, cells exposed to DMSO were used as a control. Plotting the relationship between the survival score and the compound concentration and calculating the IC50 (the concentration required to inhibit cell viability by 50%) were performed for each test compound according to Li et al. in comparison with the reference standard anticancer agent, 5-FU.
(§4) The 3-[4,5-dimethylthiazol-2-yl]-2,5-diphenyltetrazolium bromide (MTT) colorimetric assay was used to examine the sensitivity of cells to tested compounds (as anticancer drugs), as previously described by Hussein et al. (2017). This assay depend on the production of a purple formazan derivative from the yellow tetrazolium bromide (MTT) by mitochondrial succinate dehydrogenase in viable cells. Briefly, after harvesting the cells with 0.25% trypsin, the cell lines were suspended in DMEM. Cells were seeded in 96-well microtiter plates at a concentration of 5×10^4 cell/well in a fresh medium and left to attach to the plates for 24 h before treatment with the tested compounds 3a-g. Test compounds were dissolved in dimethyl sulfoxide (DMSO). After 24 hours, cells were incubated with the appropriate concentration ranges of compounds, the wells were diluted to […] with fresh medium and incubation was continued for 24 hours. Three wells were used for each concentration. After 24 hours of treatment, 20 μl of MTT solution (5mg/ml) was added and subsequently the plates were further incubated for 4 hours to allow the viable cells to biotransform the yellow-colored MTT into purple formazan crystals. The optical density (O.D.) of each well was measured spectrophotometrically at […] with an enzyme-linked immunosorbent assay (ELISA) microplate reader (BioTek, EL-800, USA). The percentage of cell survival was calculated as follows: […]

[2] = system: human liver cancer cell line (HepG2); experiment: MTT assay, cytotoxicity; assay type: cell-based; settings: for survival percentage (mean ± SEM): HepG2, 24 hours
Experimental: as §1, §2, §3, §4

[3] = system: HepG2 cell line; experiment: Cell cycle analysis (PI, flow cytometry); assay type: cell-based, human
Experimental: (§5) Cell cycle analysis was performed to decide if the newly synthesized thienopyrimidine derivatives arrested the cell cycle and at what phase of the cell cycle, the HepG2 and MCF-7 cell lines were arrested. The experiments were performed as previously described by Tolba et al.. HepG2 and MCF-7 cell lines were seeded and incubated with the tested compounds in 6-well plates. After incubation overnight, the cells were washed twice with ice-cold phosphate-buffered saline (PBS), detached by EDTA-trypsinization from the plates, harvested by centrifugation, fixed in ice-cold 70% (v/v) ethanol, and washed with phosphate-buffered saline (PBS, pH 7.2 ± 0.2). The cells were resuspended with 0.1 mg/ml RNase, stained with […] propidium iodide (PI), and analyzed by flow cytometry using a FACSCalibur flow cytometer (BD Biosciences, San Jose, CA). CellQuest software (Becton Dickinson) was used to determine the cell cycle distributions after incubation with 5-FU or tested compounds. Exposure of HepG2 and MCF-7 cell lines to these compounds could interfere with the normal cell cycle distribution.

[4] = system: MCF-7 cell line; experiment: Cell cycle analysis (PI, flow cytometry); assay type: cell-based, human; settings: compared with control cells
Experimental: as §5

[5] = system: MDA in MCF-7 cells; experiment: Lipid peroxidation (MDA); assay type: cell-based, human; settings: IC50, in comparison to untreated cells
Experimental: MDA is described as a lipid peroxidation product. It reacts with thiobarbituric acid to produce a red substance that is absorbed at 535 nm.
MDA has been described as the product of lipid peroxidation that reacts with thiobarbituric acid to produce a red substance that is absorbed at 535 nm (Kei et al., 1978). HepG2 and MCF7 cells treated with synthetic thienopyrimidine were mixed with 2 ml of solution of trichloroacetic acid (TCA), thiobarbituric acid (TBA) and hydrochloric acid (HCl) and mixed thoroughly, and then heated in a boiling water bath. during 15 minutes. After cooling, the precipitate was removed by centrifugation at 3000 rpm for 10 minutes. Relative to the reagent blank, which measures the absorbance at 535 nm, the blank reagent contains all reagents except cells. The MDA concentration is expressed as nmol/ml using a calibration curve.

[6] = system: GR activity in MCF-7 cells; experiment: Glutathione reductase (GR) activity; assay type: cell-based, human; settings: IC50, in comparison to untreated cells
Experimental: The activity of GR was determined by the decrease in absorbance caused by the oxidation of NADPH during the reduction of oxidized GSH [41].
The activity of GR was determined by the decrease in absorbance caused by the oxidation of NADPH during the reduction of oxidized GSH (Malik et al., 2019). HepG2 or MCF-7cells were pre-treated with newly synthesized chalcone-thienopyrimidines derivatives for 24 hours, harvested and the pellet was re-suspended in twice the volume of protein extraction buffer (PEB). Cells were then vortexed vigorously for 2 min, repeating the cycle three times. Homogenate was then centrifuged at 10,000 rpm for 10 min. The supernatant was collected and was used to quantitate antioxidant enzyme GR using standard protocols. All determinations were made in at least five replicates and the values given are the average of these replicates.

| SMILES | survival percentage (mean ± SEM) ([1]; 4.8828125 μg/ml) [%] | survival percentage (mean ± SEM) ([1]; 9.765625 μg/ml) [%] | survival percentage (mean ± SEM) ([1]; 19.53125 μg/ml) [%] | survival percentage (mean ± SEM) ([1]; 39.0625 μg/ml) [%] | survival percentage (mean ± SEM) ([1]; 78.125 μg/ml) [%] | survival percentage (mean ± SEM) ([1]; 156.25 μg/ml) [%] | survival percentage (mean ± SEM) ([1]; 312.5 μg/ml) [%] | survival percentage (mean ± SEM) ([1]; 625 μg/ml) [%] | survival percentage (mean ± SEM) ([1]; 1250 μg/ml) [%] | survival percentage (mean ± SEM) ([1]; 2500 μg/ml) [%] | survival percentage (mean ± SEM) ([1]; 5000 μg/ml) [%] | survival percentage (mean ± SEM) ([1]; 10000 μg/ml) [%] | fold more effective anticancer activity than 5-FU ([1]; MCF-7 cell line) [fold] | survival percentage (mean ± SEM) ([2]; 4.8828125 μg/ml) [%] | survival percentage (mean ± SEM) ([2]; 9.765625 μg/ml) [%] | survival percentage (mean ± SEM) ([2]; 19.53125 μg/ml) [%] | survival percentage (mean ± SEM) ([2]; 39.0625 μg/ml) [%] | survival percentage (mean ± SEM) ([2]; 78.125 μg/ml) [%] | survival percentage (mean ± SEM) ([2]; 156.25 μg/ml) [%] | survival percentage (mean ± SEM) ([2]; 312.5 μg/ml) [%] | also measured |
| --- | --- | --- | --- | --- | --- | --- | --- | --- | --- | --- | --- | --- | --- | --- | --- | --- | --- | --- | --- | --- | --- |
| CCOC(=O)Cn1c(SCC(=O)Nc2ccc(C(=O)/C=C\c3cccc([N+](=O)[O-])c3)cc2)nc2sc3c(c2c1=O)CC(C)(C)NC3(C)C [Compound 3g, Ethyl (Z)-2-(6,6,8,8-Tetramethyl-2-((2-((4-(3-(3-nitrophenyl)acryloyl)-phenyl)amino)-2-oxoethyl)thio)-4-oxo-5,6,7,8-tetrahydropyrido[4′,3′:4,5]thieno[2,3-d]pyrimidin-3(4H)-yl)acetate] | 105.3 ± 0.032 | 98.2 ± 0.023 | 96.4 ± 0.003 | 81.0 ± 0.009 | 28.0 ± 0.015 | 20.1 ± 0.003 | 19.4 ± 0.004 | 19.9 ± 0.001 | 19.9 ± 0.002 | 19.0 ± 0.001 | 18.9 ± 0.001 | 15.3 ± 0.000 | 350.4 | 131.3 ± 0.033 | 115.9 ± 0.098 | 97.8 ± 0.053 | 64.1 ± 0.038 | 17.5 ± 0.002 | 14.5 ± 0.003 | 14.1 ± 0.002 | survival percentage (mean ± SEM) ([2]; 625 μg/ml): 13.0 ± 0.003%; survival percentage (mean ± SEM) ([2]; 1250 μg/ml): 12.5 ± 0.001%; survival percentage (mean ± SEM) ([2]; 2500 μg/ml): 12.7 ± 0.002%; survival percentage (mean ± SEM) ([2]; 5000 μg/ml): 12.5 ± 0.001%; survival percentage (mean ± SEM) ([2]; 10000 μg/ml): 12.3 ± 0.002%; fold more potent activity than 5-FU ([2]; HepG2 cell line): 420.94 fold; cell population in G2/M compared with control cells [3]: substantial increase; cell population in pre-G1 phases compared with control cells [3]: significant increase; G1 and pre-G1 arrest [4]: significantly (P < 0.05) induced G1 and pre-G1 arrest; MDA [5]: significant elevation; GR activity [6]: significant decline; melting point: 194 to 195 °C |
| CCOC(=O)Cn1c(SCC(=O)Nc2ccc(C(=O)/C=C\c3cc(OC)c(OC)c(OC)c3)cc2)nc2sc3c(c2c1=O)CCN(C(=O)OCC)C3 [Compound 3b, Ethyl (Z)-3-(2-Ethoxy-2-oxoethyl)-4-oxo-2-((2-oxo-2-((4-(3-(3,4,5 trimethoxyphenyl)acryloyl)phenyl)amino)ethyl)thio)-3,5,6,8 tetra-hydropyrido[4′,3′:4,5]thieno[2,3-d]pyrimidine-7(4H)-carboxylate] | 104.9 ± 0.016 | 102.6 ± 0.015 | 83.2 ± 0.022 | 31.8 ± 0.009 | 27.7 ± 0.026 | 21.3 ± 0.013 | 21.0 ± 0.001 | 20.3 ± 0.002 | 20.3 ± 0.001 | 20.1 ± 0.001 | 19.7 ± 0.002 | 17.3 ± 0.001 | 846.5 | 110.1 ± 0.046 | 67.9 ± 0.048 | 23.2 ± 0.012 | 18.4 ± 0.006 | 17.3 ± 0.007 | 16.2 ± 0.004 | 13.3 ± 0.004 | times more activity compared to compound 3g ([1]; MCF-7 cell line): ~ 2.5 times; survival percentage (mean ± SEM) ([2]; 625 μg/ml): 12.9 ± 0.006%; survival percentage (mean ± SEM) ([2]; 1250 μg/ml): 12.7 ± 0.002%; survival percentage (mean ± SEM) ([2]; 2500 μg/ml): 12.2 ± 0.001%; survival percentage (mean ± SEM) ([2]; 5000 μg/ml): 12.1 ± 0.001%; survival percentage (mean ± SEM) ([2]; 10000 μg/ml): 12.1 ± 0.002%; times more activity compared to compounds 3a and 3c ([2]; HepG2 cell line): ~ 18 times; cell population in pre-G1 phases compared with control cells [3]: significant increase; G1 and pre-G1 arrest [4]: significantly (P < 0.05) induced G1 and pre-G1 arrest; MDA [5]: significant elevation; GR activity [6]: significant decline; melting point: 172 to 173 °C |
